Source: ChEMBL document CHEMBL1806441, “Discovery and synthesis of a new class of opioid ligand having a 3-azabicyclo[3.1.0]hexane core. An example of a 'magic methyl' giving a 35-fold improvement in binding” (Bioorg Med Chem Lett, 2011)
pKi: −log10 of the molar value. The source made the active and inactive calls. No cut-off for these calls is given here.

How the values were obtained:
Mu-type opioid receptor [1] = biological target: Mu-type opioid receptor (Homo sapiens, UniProt P35372); experiment: Displacement of [3H]DAMGO from human mu opioid receptor
Chain of Mu-type opioid receptor (Homo sapiens, UniProt P35372) (P35372 whole entry): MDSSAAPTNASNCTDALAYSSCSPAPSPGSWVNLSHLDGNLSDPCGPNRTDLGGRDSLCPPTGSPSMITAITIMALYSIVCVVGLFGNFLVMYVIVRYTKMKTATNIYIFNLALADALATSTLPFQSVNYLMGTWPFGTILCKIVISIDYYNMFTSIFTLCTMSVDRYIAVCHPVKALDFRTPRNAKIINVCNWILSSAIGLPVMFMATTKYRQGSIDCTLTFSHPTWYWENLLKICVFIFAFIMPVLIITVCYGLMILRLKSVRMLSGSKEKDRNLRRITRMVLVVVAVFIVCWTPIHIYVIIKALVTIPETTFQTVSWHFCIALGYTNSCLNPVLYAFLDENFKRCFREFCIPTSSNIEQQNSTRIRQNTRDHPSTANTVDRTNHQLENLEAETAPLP

[2] = Binding affinity to dog mu opioid receptor; set-up: species or system Canis lupus familiaris
[3] = Binding affinity to dog kappa opioid receptor; set-up: species or system Canis lupus familiaris
[4] = Binding affinity to dog delta opioid receptor; set-up: species or system Canis lupus familiaris
Mu-type opioid receptor [5] = biological target: Mu-type opioid receptor (Cavia porcellus, UniProt P97266); experiment: Antagonist activity at mu opioid receptor in guinea pig longitudinal muscle myenteric plexus assessed as inhibition of DAMGO-induced contraction after 10 mins; type: functional; settings: read-out: pA2 (converted)
Chain of Mu-type opioid receptor (Cavia porcellus, UniProt P97266) (P97266 whole entry): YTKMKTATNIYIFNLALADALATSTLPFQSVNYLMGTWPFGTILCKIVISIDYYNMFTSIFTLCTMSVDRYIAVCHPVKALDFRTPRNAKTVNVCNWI

Mus musculus = experiment: Inhibition of morphine-induced antinociception in ICR mouse assessed as antagonism of morphine response to heat-induced tail flick at 10 mg/kg, sc preincubated for 15 mins before the addition of morphine assessed after 30 mins; type: functional; settings: route subcutaneous
CHO = experiment: Genotoxicity in CHO cells by micronucleus assay; type: toxicity, cell-based, Cricetulus griseus; settings: chinese hamster
Canis familiaris = experiment: Antipruritic activity in dog with flea allergy dermatitis at 2 mg/kg, po upto 12 hrs; type: functional, organism-based; set-up: dose 2 mg/kg; settings: Canis lupus familiaris
Cytochrome P450 2D15 = biological target: T1, Cytochrome P450 2D15 (Canis lupus familiaris, UniProt Q29473); experiment: Inhibition of dog CYP2D15; type: ADME
T1 sequence (Q29473 whole entry): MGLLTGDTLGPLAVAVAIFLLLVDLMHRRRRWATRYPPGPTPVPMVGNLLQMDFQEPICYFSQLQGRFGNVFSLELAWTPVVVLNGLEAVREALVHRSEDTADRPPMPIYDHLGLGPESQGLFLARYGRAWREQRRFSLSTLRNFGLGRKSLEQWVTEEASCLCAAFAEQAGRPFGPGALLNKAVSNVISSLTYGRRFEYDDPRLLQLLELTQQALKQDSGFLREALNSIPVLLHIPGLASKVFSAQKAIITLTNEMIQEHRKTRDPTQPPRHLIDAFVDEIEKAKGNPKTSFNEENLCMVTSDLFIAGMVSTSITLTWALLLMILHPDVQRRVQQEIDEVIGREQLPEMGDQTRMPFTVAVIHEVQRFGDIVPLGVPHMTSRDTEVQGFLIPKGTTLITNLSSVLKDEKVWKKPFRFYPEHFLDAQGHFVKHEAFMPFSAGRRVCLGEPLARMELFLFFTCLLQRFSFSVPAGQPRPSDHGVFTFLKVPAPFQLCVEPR

CS(=O)(=O)Nc1cccc([C@H]2[C@@H]3CN(CCCc4ccccc4)C[C@@H]32)c1
pKi (Mu-type opioid receptor [1]): 6.77 | pKi [2]: 6.42 | pKi [3]: 5.80 | pKi [4]: < 5.00

C[C@]1(c2cccc(NS(C)(=O)=O)c2)[C@@H]2CN(CCCc3ccccc3)C[C@@H]21
pKi (Mu-type opioid receptor [1]): 8.32 | pKi [2]: 8.39 | pKi [3]: 7.03 | pKi [4]: 6.74 | Kb (Mu-type opioid receptor [5]): 0.0107 µM | inhibition in vivo at 10 mg/kg (Mus musculus): 89% | Activity (CHO): Non-toxic | Activity (Canis familiaris): Active | inhibition (INH) (Cytochrome P450 2D15): Active
